Reference: patent publication US7960406B2, “Diketo substituted pyrrolo[2,3-c] pyridines” (priority 2008, dated 2011)
Where two headings read alike, the source gives them in different places.

System: HIV-1 single-round infectious reporter virus
Test: Single-round infectious HIV-1 luciferase reporter virus infection of HeLa CD4 cells
Type: cell-based
Settings: Human immunodeficiency virus 1, HeLa, 72 h
Procedure: • Virus production—Human embryonic Kidney cell line, 293T, was propagated in Dulbecco's Modified Eagle Medium (Invitrogen, Carlsbad, Calif.) containing 10% fetal Bovine serum (FBS, Sigma, St. Louis, Mo.). • Virus infection—Human epithelial cell line, HeLa, expressing the HIV-1 receptor CD4 was propagated in Dulbecco's Modified Eagle Medium (Invitrogen, Carlsbad, Calif.) containing 10% fetal Bovine serum (FBS, Sigma, St. Louis, Mo.) and supplemented with 0.2 mg/mL GENETICIN® (Invitrogen, Carlsbad, Calif.). • Virus—Single-round infectious reporter virus was produced by co-transfecting human embryonic Kidney 293 cells with an HIV-1 envelope DNA expression vector and a proviral cDNA containing an envelope deletion mutation and the luciferase reporter gene inserted in place of HIV-1 nef sequences (Chen et al., Ref. 41). Transfections were performed using Lipofectamine Plus reagent as described by the manufacturer (Invitrogen, Carlsbad, Calif.). Experimental Procedure:
1. HeLa CD4 cells were plated in 96 well plates at a cell density of 1×10^4 cells per well in 100 μl Dulbecco's Modified Eagle Medium containing 10% fetal Bovine serum and incubated overnight.
2. Compound was added in a 2 μl dimethylsulfoxide solution, so that the final assay concentration would be ≦10 μM.
3. 100 μl of single-round infectious reporter virus in Dulbecco's Modified Eagle Medium was then added to the plated cells and compound at an approximate multiplicity of infection (MOI) of 0.01, resulting in a final volume of 200 μl per well.
4. Virally-infected cells were incubated at 37° C., in a CO2 incubator, and harvested 72 h after infection.
5. Viral infection was monitored by measuring luciferase expression from viral DNA in the infected cells using a luciferase reporter gene assay kit, as described by the manufacturer (Roche Molecular Biochemicals, Indianapolis, Ind.). Infected cell supernatants were removed and 50 μl of lysis buffer was added per well. After 15 minutes, 50 μl of freshly-reconstituted luciferase assay reagent was added per well. Luciferase activity was then quantified by measuring luminescence using a Wallac MICROBETA® scintillation counter.
6. The percent inhibition for each compound was calculated by quantifying the level of luciferase expression in cells infected in the presence of each compound as a percentage of that observed for cells infected in the absence of compound and subtracting such a determined value from 100.
7. An EC50 provides a method for comparing the antiviral potency of the compounds of this disclosure. The effective concentration for fifty percent inhibition (EC50) was calculated with the Microsoft Excel Xlfit curve fitting software. For each compound, curves were generated from percent inhibition calculated at 10 different concentrations by using a four parameter logistic model (model 205). Table 1 is the key for the data in Table 2.

[1] = read-out: EC50 Group from Table 1

Row | SMILES | EC50 [nM] | EC50 [1] [nM]
1 | O=C(C(=O)N1CCn2c(nnc2-c2ccccc2)C1)c1c[nH]c2cccc(F)c12 [Compound A1] | 217 | –
2 | COc1cnc(-n2cnc(C)n2)c2[nH]cc(C(=O)C(=O)N3CCn4c(nnc4-c4ccccc4)C3)c12 [Compound B1] | 0.95 | –
3 | COc1cnc(-n2ccnn2)c2[nH]cc(C(=O)C(=O)N3CCn4c(nnc4-c4ccccc4)C3)c12 [Compound B2] | – | < 500
4 | O=C(C(=O)N1CCn2c(nnc2-c2ccccc2)C1)c1c[nH]c2c(-n3ccnn3)ncc(F)c12 [Compound B3] | – | < 500
5 | COCc1ncn(-c2ncc(OC)c3c(C(=O)C(=O)N4CCn5c(nnc5-c5ccccc5)C4)c[nH]c23)n1 [Compound B4] | – | < 500
6 | COc1cnc(-n2cnc(C)n2)c2[nH]cc(C(=O)C(=O)N3CCn4c(nnc4-c4ccccc4C)C3)c12 [Compound C1] | 11.8 | –
7 | COc1cnc(-n2cnc(C)n2)c2[nH]cc(C(=O)C(=O)N3CCn4c(nnc4-c4ccccc4F)C3)c12 [Compound C2] | 0.29 | –
8 | COc1cnc(-n2cnc(C)n2)c2[nH]cc(C(=O)C(=O)N3CCn4c(nnc4-c4ccccn4)C3)c12 [Compound C3] | – | < 500
9 | COc1cnc(-n2cnc(C)n2)c2[nH]cc(C(=O)C(=O)N3CCn4c(nnc4-c4ccccc4C(N)=O)C3)c12 [Compound C4] | > 500 | –
10 | COc1ccccc1-c1nnc2n1CCN(C(=O)C(=O)c1c[nH]c3c(-n4cnc(C)n4)ncc(OC)c13)C2 [Compound C5] | – | < 500
11 | COc1cnc(-n2cnc(C)n2)c2[nH]cc(C(=O)C(=O)N3CCn4c(nnc4-c4ccccc4Cl)C3)c12 [Compound C6] | – | < 500
12 | COc1cnc(-n2cnc(C)n2)c2[nH]cc(C(=O)C(=O)N3CCn4c(nnc4-c4ccccc4O)C3)c12 [Compound C7] | 1.91 | –
13 | COc1cnc(-n2cnc(C)n2)c2[nH]cc(C(=O)C(=O)N3CCn4c(nnc4-c4cccc(C)c4)C3)c12 [Compound C8] | – | < 500
14 | COc1cnc(-n2cnc(C)n2)c2[nH]cc(C(=O)C(=O)N3CCn4c(-c5ccccc5)cnc4C3)c12 [Compound D1] | – | < 500
15 | COc1cnc(-n2ccnn2)c2[nH]cc(C(=O)C(=O)N3CCn4c(-c5ccccc5)cnc4C3)c12 [Compound D2] | 0.05 | –
16 | COc1cnc(-c2cncnc2)c2[nH]cc(C(=O)C(=O)N3CCn4c(-c5ccccc5)cnc4C3)c12 [Compound D3] | – | < 500
17 | COc1cnc(-n2cnc(C)n2)c2[nH]cc(C(=O)C(=O)N3CCn4c(-c5ccccn5)cnc4C3)c12 [Compound E1] | – | < 500
18 | COc1cnc(-n2cnc(C)n2)c2[nH]cc(C(=O)C(=O)N3CCn4c(-c5cccc(O)c5)cnc4C3)c12 [Compound F1] | – | < 500
19 | COc1cnc(-n2cnc(C)n2)c2[nH]cc(C(=O)C(=O)N3CCn4c(-c5cccnc5)cnc4C3)c12 [Compound F2] | – | < 500
20 | COc1cnc(-n2cnc(C)n2)c2[nH]cc(C(=O)C(=O)N3CCn4c(-c5ccc(O)cc5)cnc4C3)c12 [Compound F3] | – | < 500
21 | COc1ccc(-c2cnc3n2CCN(C(=O)C(=O)c2c[nH]c4c(-n5cnc(C)n5)ncc(OC)c24)C3)cn1 [Compound F4] | – | < 500
22 | COc1cnc(-n2cnc(C)n2)c2[nH]cc(C(=O)C(=O)N3CCn4c(-c5ccccc5C#N)cnc4C3)c12 [Compound F5] | 98.9 | –
23 | COc1cnc(-n2cnc(C)n2)c2[nH]cc(C(=O)C(=O)N3CCn4c(-c5ccncc5)cnc4C3)c12 [Compound F6] | 13.6 | –

Row | SMILES | EC50 [nM] | EC50 [1] [nM]
24 | COc1cnc(-n2cnc(C)n2)c2[nH]cc(C(=O)C(=O)N3CCn4c(nc(Cl)c4-c4ccccc4)C3)c12 [Compound G1] | – | < 500
25 | COc1cnc(-n2cnc(C)n2)c2[nH]cc(C(=O)C(=O)N3CCn4c(nc(Br)c4-c4ccccc4)C3)c12 [Compound G2] | – | < 500
26 | COc1nc2n(c1-c1ccccc1)CCN(C(=O)C(=O)c1c[nH]c3c(-n4cnc(C)n4)ncc(OC)c13)C2 [Compound H1a] | – | < 500
27 | COc1nc2n(c1-c1ccccn1)CCN(C(=O)C(=O)c1c[nH]c3c(-n4cnc(C)n4)ncc(OC)c13)C2 [Compound H1b] | – | < 500
28 | COc1cnc(-n2cnc(C)n2)c2[nH]cc(C(=O)C(=O)N3CCn4c(nc(C)c4-c4ccccn4)C3)c12 [Compound H2] | 1 | –
29 | COc1cnc(-n2cnc(C)n2)c2[nH]cc(C(=O)C(=O)N3CCn4c(nc(C(F)(F)F)c4-c4ccccc4)C3)c12 [Compound I1] | – | < 500
30 | O=C(C(=O)N1CCn2c(nc(C(F)(F)F)c2-c2ccccc2)C1)c1c[nH]c2c(-n3ccnn3)ncc(F)c12 [Compound I2] | – | < 500
31 | COc1cnc(-n2cnc(C)n2)c2[nH]cc(C(=O)C(=O)N3CCn4c(nc(C(F)(F)F)c4-c4ccccn4)C3)c12 [Compound I3] | 0.59 | –
32 | COc1cnc(-c2cc(CO)[nH]n2)c2[nH]cc(C(=O)C(=O)N3CCn4c(-c5ccccc5)cnc4C3)c12 [Compound J1] | 0.05 | –
33 | COc1cnc(-c2cc(C(C)(C)O)[nH]n2)c2[nH]cc(C(=O)C(=O)N3CCn4c(-c5ccccc5)cnc4C3)c12 [Compound J2] | – | < 500
34 | COc1cnc(-n2cnc(C)n2)c2[nH]cc(C(=O)C(=O)N3CCc4c(c(-c5ccccc5)nn4-c4ccccc4)C3)c12 [Compound K1] | 2.6 | –
35 | COc1cnc(-n2cnc(C)n2)c2[nH]cc(C(=O)C(=O)N3CCc4c(cnn4-c4ncccn4)C3)c12 [Compound L1] | – | < 500
36 | COc1cnc(-n2cnc(C)n2)c2[nH]cc(C(=O)C(=O)N3CCc4c(cnn4-c4cc(C)nc(C)n4)C3)c12 [Compound L2] | 331 | –
37 | COc1cnc(-n2cnc(C)n2)c2[nH]cc(C(=O)C(=O)N3CCc4c(cnn4-c4ccccc4)C3)c12 [Compound L3] | 0.03 | –
38 | COc1cnc(-n2cnc(C)n2)c2[nH]cc(C(=O)C(=O)N3CCc4c(cnn4-c4ccccn4)C3)c12 [Compound L4] | – | < 500
39 | COc1cnc(-n2cnc(C)n2)c2[nH]cc(C(=O)C(=O)N3CCc4c(cnn4-c4cnccn4)C3)c12 [Compound L5] | – | < 500
40 | COc1cnc(-n2cnc(C)n2)c2[nH]cc(C(=O)C(=O)N3CCc4c(ncn4-c4ccccc4)C3)c12 [Compound M1] | 0.07 | –
41 | COc1cnc(-n2cnc(C)n2)c2[nH]cc(C(=O)C(=O)N3CCc4c(ncn4-c4ccccn4)C3)c12 [Compound M2] | – | < 500
42 | COc1cnc(-n2cnc(C)n2)c2[nH]cc(C(=O)C(=O)N3CCn4c(cnc4-c4ccccc4)C3)c12 [Compound N1] | 0.06 | –
43 | COc1cnc(-n2cnc(C)n2)c2[nH]cc(C(=O)C(=O)N3CCn4c(cnc4-c4ccc(F)cc4F)C3)c12 [Compound N2] | – | < 500
44 | O=C(C(=O)N1CCN2C(c3ccccc3)=NCC2C1)c1c[nH]c2c(-n3ccnn3)ncc(F)c12 (stereo not drawn) [Compound O1] | 13 | –
45 | COc1cnc(-n2cnc(C)n2)c2[nH]cc(C(=O)C(=O)N3CCN4C(c5ccccn5)=NCC4C3)c12 (stereo not drawn) [Compound O2] | – | < 500
